# Source: the supplement of paper PMC10307832
# Key:
# Experiment in all cases: relative viability (nuclei count vs DMSO), 5 days (fraction); higher = more cells survive
# NCI-H2085 = test system: NCI-H2085
# Procedure, shortened: (§1)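 One day after seeding in 1536-well plates, lung cancer cell lines were dosed by pin tool. Dosing was either single-drug or a fixed anchor-drug dose plus five library-drug doses (not always all listed) in √10 steps. After 5 days, nuclei were stained in one fix-and-stain step and counted on 4× images, and relative viability is the nuclei count of treated wells over that of vehicle wells, given as the median of duplicate plates.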
# BEN = test system: BEN
# Procedure, shortened: as §1
# PC-14 = test system: PC-14
# Procedure, shortened: as §1
# NCI-H1355 = test system: NCI-H1355
# Procedure, shortened: as §1
# NCI-H2009 = test system: NCI-H2009
# Procedure, shortened: as §1
# LCLC-97TM1 = test system: LCLC-97TM1
# Procedure, shortened: as §1
# NCI-H322M = test system: NCI-H322M
# Procedure, shortened: as §1
# NCI-H460 = test system: NCI-H460
# Procedure, shortened: as §1
# HCC-78 = test system: HCC-78
# Procedure, shortened: as §1
# 201T = test system: 201T
# Procedure, shortened: as §1
# NCI-H650 = test system: NCI-H650
# Procedure, shortened: as §1
# NCI-H2126 = test system: NCI-H2126
# Procedure, shortened: as §1
# LU99A = test system: LU99A
# Procedure, shortened: as §1
# NCI-H647 = test system: NCI-H647
# Procedure, shortened: as §1
# NCI-H1395 = test system: NCI-H1395
# Procedure, shortened: as §1
# NCI-H2405 = test system: NCI-H2405
# Procedure, shortened: as §1
# NCI-H23 = test system: NCI-H23
# Procedure, shortened: as §1
# NCI-H2342 = test system: NCI-H2342
# Procedure, shortened: as §1
# HCC-15 = test system: HCC-15
# Procedure, shortened: as §1
# EPLC-272H = test system: EPLC-272H
# Procedure, shortened: as §1
# NCI-H661 = test system: NCI-H661
# Procedure, shortened: as §1
# NCI-H838 = test system: NCI-H838
# Procedure, shortened: as §1
smiles,measurement,setting,value
CN1CCN(CCOc2cc(OC3CCOCC3)c3c(Nc4c(Cl)ccc5c4OCO5)ncnc3c2)CC1 [Saracatinib] + Nc1ncn([C@H]2C[C@H](O)[C@@H](CO)O2)c(=O)n1 [Decitabine] (partner 2 µM),relative viability,NCI-H2085; first compound 0.02 µM,0.531
same,relative viability,NCI-H2085; first compound 0.2 µM,0.478
same,relative viability,NCI-H2085; first compound 0.6325 µM,0.602
same,relative viability,NCI-H2085; first compound 2 µM,0.469
same,relative viability,BEN; first compound 0.02 µM,0.834
same,relative viability,BEN; first compound 0.2 µM,0.778
same,relative viability,BEN; first compound 0.6325 µM,0.747
same,relative viability,BEN; first compound 2 µM,0.628
same,relative viability,PC-14; first compound 0.02 µM,0.219
same,relative viability,PC-14; first compound 0.2 µM,0.182
same,relative viability,PC-14; first compound 0.6325 µM,0.158
same,relative viability,PC-14; first compound 2 µM,0.118
same,relative viability,NCI-H1355; first compound 0.02 µM,0.345
same,relative viability,NCI-H1355; first compound 0.2 µM,0.35
same,relative viability,NCI-H1355; first compound 0.6325 µM,0.358
same,relative viability,NCI-H1355; first compound 2 µM,0.354
same,relative viability,NCI-H2009; first compound 0.02 µM,0.406
same,relative viability,NCI-H2009; first compound 0.2 µM,0.35
same,relative viability,NCI-H2009; first compound 0.6325 µM,0.35
same,relative viability,NCI-H2009; first compound 2 µM,0.322
same,relative viability,LCLC-97TM1; first compound 0.02 µM,0.244
same,relative viability,LCLC-97TM1; first compound 0.2 µM,0.18
same,relative viability,LCLC-97TM1; first compound 0.6325 µM,0.215
same,relative viability,LCLC-97TM1; first compound 2 µM,0.178
same,relative viability,NCI-H322M; first compound 0.02 µM,0.79
same,relative viability,NCI-H322M; first compound 0.2 µM,0.473
same,relative viability,NCI-H322M; first compound 0.6325 µM,0.659
same,relative viability,NCI-H322M; first compound 2 µM,0.409
same,relative viability,NCI-H460; first compound 0.02 µM,0.457
same,relative viability,NCI-H460; first compound 0.2 µM,0.242
same,relative viability,NCI-H460; first compound 0.6325 µM,0.423
same,relative viability,NCI-H460; first compound 2 µM,0.32
same,relative viability,HCC-78; first compound 0.02 µM,0.524
same,relative viability,HCC-78; first compound 0.6325 µM,0.736
same,relative viability,HCC-78; first compound 2 µM,0.686
same,relative viability,201T; first compound 0.02 µM,0.832
same,relative viability,201T; first compound 0.2 µM,0.644
same,relative viability,201T; first compound 0.6325 µM,0.75
same,relative viability,201T; first compound 2 µM,0.71
same,relative viability,NCI-H650; first compound 0.02 µM,0.319
same,relative viability,NCI-H650; first compound 0.2 µM,0.3
same,relative viability,NCI-H650; first compound 0.6325 µM,0.295
same,relative viability,NCI-H650; first compound 2 µM,0.288
same,relative viability,NCI-H2126; first compound 0.02 µM,0.61
same,relative viability,NCI-H2126; first compound 0.2 µM,0.567
same,relative viability,NCI-H2126; first compound 0.6325 µM,0.551
same,relative viability,NCI-H2126; first compound 2 µM,0.454
same,relative viability,LU99A; first compound 0.02 µM,0.857
same,relative viability,LU99A; first compound 0.2 µM,0.807
same,relative viability,LU99A; first compound 0.6325 µM,0.678
same,relative viability,LU99A; first compound 2 µM,0.658
same,relative viability,NCI-H647; first compound 0.02 µM,0.438
same,relative viability,NCI-H647; first compound 0.2 µM,0.313
same,relative viability,NCI-H647; first compound 0.6325 µM,0.468
same,relative viability,NCI-H647; first compound 2 µM,0.433
same,relative viability,NCI-H1395; first compound 0.02 µM,0.752
same,relative viability,NCI-H1395; first compound 0.2 µM,0.753
same,relative viability,NCI-H1395; first compound 0.6325 µM,0.737
same,relative viability,NCI-H1395; first compound 2 µM,0.635
same,relative viability,NCI-H2405; first compound 0.02 µM,0.698
same,relative viability,NCI-H2405; first compound 0.2 µM,0.717
same,relative viability,NCI-H2405; first compound 0.6325 µM,0.583
same,relative viability,NCI-H2405; first compound 2 µM,0.4
same,relative viability,NCI-H23; first compound 0.02 µM,0.208
same,relative viability,NCI-H23; first compound 0.6325 µM,0.29
same,relative viability,NCI-H23; first compound 2 µM,0.212
same,relative viability,NCI-H2342; first compound 0.02 µM,0.791
same,relative viability,NCI-H2342; first compound 0.2 µM,0.677
same,relative viability,NCI-H2342; first compound 0.6325 µM,0.673
same,relative viability,NCI-H2342; first compound 2 µM,0.656
same,relative viability,HCC-15; first compound 0.02 µM,0.73
same,relative viability,HCC-15; first compound 0.2 µM,0.62
same,relative viability,HCC-15; first compound 0.6325 µM,0.605
same,relative viability,HCC-15; first compound 2 µM,0.557
same,relative viability,EPLC-272H; first compound 0.02 µM,0.388
same,relative viability,EPLC-272H; first compound 0.2 µM,0.361
same,relative viability,EPLC-272H; first compound 0.6325 µM,0.442
same,relative viability,EPLC-272H; first compound 2 µM,0.37
same,relative viability,NCI-H661; first compound 0.02 µM,0.563
same,relative viability,NCI-H661; first compound 0.2 µM,0.434
same,relative viability,NCI-H661; first compound 0.6325 µM,0.534
same,relative viability,NCI-H661; first compound 2 µM,0.403
same,relative viability,NCI-H838; first compound 0.02 µM,0.45
same,relative viability,NCI-H838; first compound 0.2 µM,0.417
same,relative viability,NCI-H838; first compound 0.6325 µM,0.467
same,relative viability,NCI-H838; first compound 2 µM,0.411
